{
  "source": "patent US20100261774A1",
  "about": "“Methods for the modulation of Leishmania major infection in mammals” (Children's Hospital Medical Center, priority 2009, published 2010)",
  "key": {"T. gondii": {"system": "T. gondii", "details": "mouse, in vivo"}, "visceral leishmaniasis": {"system": "visceral leishmaniasis", "assay": "Treatment of visceral leishmaniasis in patients with oral 1-MT", "format": "in vivo", "excerpt": "Patients present with symptoms of fever and organomegaly of long standing that is unresponsive to standard treatment, possibly with attendant anemia and pancytopenia, with a history of travel in an area in which leishmaniasis is known to be endemic. Laboratory tests confirm a diagnosis of visceral […]. […] Patients present with symptoms of fever and organomegaly of long standing that is unresponsive to standard treatment, possibly with attendant anemia and pancytopenia, with a history of travel in an area in which leishmaniasis is known to be endemic. Laboratory tests confirm a diagnosis of visceral leishmaniasis. […] Patients present with symptoms of fever and organomegaly of long standing that is unresponsive to standard treatment, possibly with attendant anemia and pancytopenia, with a history of travel in an area in which leishmaniasis is known to be endemic. Laboratory tests confirm a diagnosis of visceral leishmaniasis."}, "[1]": {"system": "Leishmania major clone V1 (MHOM/IL/80/Friedlin)", "protocol": "(B) Parasite burden. Quantification of parasite outgrowth from titrations of ear tissue lysates was performed at the indicated times. Values shown are means+SE of 6 mice/group. […] The effect of IDO inhibition during cutaneous leishmaniasis on antigen-specific cytokine production. […] (F) IL-10. Cytokines were quantified by ELISA in the supernatants of soluble L. major antigen-stimulated cells isolated from draining lymph nodes 4 wk after infection. Values shown are means+SE of 6 mice/group. *P<0.05.\nLesion size was quantified with a vernier caliper. Parasite burden was quantified by determining the highest dilution of ear tissue lysates in which promastigote outgrowth could be detected out after 7 days of incubation. […] Cells isolated from lymph nodes draining lesions were incubated with L major promastigote lysates.\nCytokines were quantified by ELISA in culture supernatants harvested 48 h later."}, "[2]": {"details": "L. major antigen-stimulated, ELISA, 4 wk after infection, vs untreated"}, "[3]": {"details": "early phase of parasite clearance (4 wk after infection), CCA assay"}},
  "note": "Where two headings read alike, the source gives them in different places.",
  "data": [
    {"smiles": "Cn1cc(C[C@H](N)C(=O)O)c2ccccc21", "note": "[1-MT, 1-methyl tryptophan]", "values": [
      {"measurement": "disease course and mortality", "setting": "T. gondii", "result": "reactivation of disease and increased mortality"},
      {"measurement": "local and systemic production of inflammatory mediators", "setting": "T. gondii", "result": "relatively little differences"},
      {"measurement": "amelioration of symptoms of visceral leishmaniasis", "setting": "visceral leishmaniasis; oral 1-MT 12.5-75 mg/kg/day with a drug such as amphotericin at less than usual doses, Example 4", "result": "equivalent to that achieved with standard drug therapy alone"},
      {"measurement": "amelioration of symptoms of visceral leishmaniasis", "setting": "visceral leishmaniasis; oral 1-MT 12.5-75 mg/kg/day with a drug such as amphotericin at normal doses, Example 3", "result": "more rapid than that observed with standard drug therapy alone"},
      {"measurement": "symptoms of visceral leishmaniasis", "setting": "visceral leishmaniasis; oral 1-MT approximately 12.5-75 mg/kg/day alone, Example 2", "result": "Amelioration of symptoms is observed"},
      {"measurement": "serum levels of IL-4", "setting": "[1]; 1-MT treated vs untreated infected mice, data not shown", "result": "no differences"},
      {"measurement": "IFN-γ protein produced by cells from draining lymph nodes", "setting": "[1]; [2]", "result": "Relatively more"},
      {"measurement": "IL-10 produced by T cells from draining lymph nodes", "setting": "[1]; [2]", "result": "relatively less"},
      {"measurement": "serum IFN-γ", "setting": "[1]; [3]", "result": "significantly increased"},
      {"measurement": "serum IL-10 concentrations", "setting": "[1]; [3]", "result": "decreased"},
      {"measurement": "lesional size", "setting": "[1]; first weeks after infection while lesion size increasing, vs untreated", "result": "No overt differences"},
      {"measurement": "lesional size", "setting": "[1]; post apex period, weeks 4-12 post infection, vs untreated", "result": "significantly smaller"},
      {"measurement": "parasite burden", "setting": "[1]; weeks 4 through 12 post infection, vs controls, FIG. 4B", "result": "significantly lower"},
      {"measurement": "serum levels of IFN-γ, TNF-α and IL-10", "setting": "T. gondii (ME49 strain); CCA assay, 30 d after infection, vs control", "result": "No significant alteration"},
      {"measurement": "mortality", "setting": "T. gondii (ME49 strain); T. gondii-infected mice given 1-MT, FIG. 1A", "result": 100, "unit": "%"},
      {"measurement": "mRNA expression of IL-12/23p40, IFN-γ, TNF-α and IL-10 in the central nervous system", "setting": "T. gondii (ME49 strain); qRT-PCR in brain, 30 d after infection, vs control", "result": "lack of biologically important changes"},
      {"measurement": "mortality", "setting": "T. gondii (ME49 strain); second independent experiment, not pictured, 1-MT vs control", "result": 100, "unit": "%"}
    ]}
  ]
}
